Test results reported in ChEMBL document CHEMBL4229463, “Regio- and stereospecific synthesis of rac-carbasugar-based cyclohexane pentols; Investigations of their α- and β-glucosidase inhibitions” (Bioorg Med Chem, 2018).

Assays:
Prunus dulcis [1] = assay: Inhibition of almond beta-glucosidase at 60 uM using PNPG as substrate after 3 mins by UV-vis spectrophotometric method relative to control
Saccharomyces cerevisiae [2] = assay: Inhibition of Saccharomyces cerevisiae alpha-glucosidase at 10 uM using PNPG as substrate after 3 mins by UV-vis spectrophotometric method relative to control
Saccharomyces cerevisiae [3] = assay: Inhibition of Saccharomyces cerevisiae alpha-glucosidase at 120 uM using PNPG as substrate after 3 mins by UV-vis spectrophotometric method relative to control
Prunus dulcis [4] = assay: Inhibition of almond beta-glucosidase at 80 uM using PNPG as substrate after 3 mins by UV-vis spectrophotometric method relative to control
Saccharomyces cerevisiae [5] = assay: Inhibition of Saccharomyces cerevisiae alpha-glucosidase at 60 uM using PNPG as substrate after 3 mins by UV-vis spectrophotometric method relative to control
Prunus dulcis [6] = assay: Inhibition of almond beta-glucosidase at 120 uM using PNPG as substrate after 3 mins by UV-vis spectrophotometric method relative to control
Saccharomyces cerevisiae [7] = assay: Inhibition of Saccharomyces cerevisiae alpha-glucosidase at 40 uM using PNPG as substrate after 3 mins by UV-vis spectrophotometric method relative to control
Saccharomyces cerevisiae [8] = assay: Inhibition of Saccharomyces cerevisiae alpha-glucosidase at 80 uM using PNPG as substrate after 3 mins by UV-vis spectrophotometric method relative to control
Prunus dulcis [9] = assay: Inhibition of almond beta-glucosidase at 40 uM using PNPG as substrate after 3 mins by UV-vis spectrophotometric method relative to control
Saccharomyces cerevisiae [10] = assay: Inhibition of Saccharomyces cerevisiae alpha-glucosidase at 20 uM using PNPG as substrate after 3 mins by UV-vis spectrophotometric method relative to control
Prunus dulcis [11] = assay: Inhibition of almond beta-glucosidase at 10 uM using PNPG as substrate after 3 mins by UV-vis spectrophotometric method relative to control
Prunus dulcis [12] = assay: Inhibition of almond beta-glucosidase at 20 uM using PNPG as substrate after 3 mins by UV-vis spectrophotometric method relative to control
[13] = Inhibition of Saccharomyces cerevisiae alpha-glucosidase using PNPG as substrate after 3 mins by UV-vis spectrophotometric method
[14] = Inhibition of almond beta-glucosidase using PNPG as substrate after 3 mins by UV-vis spectrophotometric method; parameters: species or system Prunus dulcis

## OC[C@H]1C[C@H](O)[C@H](O)[C@@H](O)[C@H]1CO (racemic)
Prunus dulcis [1]
  inhibition: 4.29%
Saccharomyces cerevisiae [2]
  inhibition: 3.42%
Saccharomyces cerevisiae [3]
  inhibition: 16.3%
Prunus dulcis [4]
  inhibition: 12.9%
Saccharomyces cerevisiae [5]
  inhibition: 8.21%
Prunus dulcis [6]
  inhibition: 23%
Saccharomyces cerevisiae [7]
  inhibition: 7.93%
Saccharomyces cerevisiae [8]
  inhibition: 9.5%
Prunus dulcis [9]
  inhibition: 2%
Saccharomyces cerevisiae [10]
  inhibition: 5.59%

## C[C@H]1O[C@H](O[C@H]2[C@H](O)[C@@H](O)[C@@H](O[C@H]3[C@H](O)[C@@H](O)C(O)O[C@@H]3CO)O[C@@H]2CO)[C@H](O)[C@@H](O)[C@@H]1N[C@H]1C=C(CO)[C@@H](O)[C@H](O)[C@H]1O (some centres undefined) [ACARBOSE]
Prunus dulcis [1]
  inhibition: 52%
Saccharomyces cerevisiae [2]
  inhibition: 22.8%
Saccharomyces cerevisiae [3]
  inhibition: 78%
Prunus dulcis [4]
  inhibition: 58%
Saccharomyces cerevisiae [5]
  inhibition: 46%
Prunus dulcis [11]
  inhibition: 17%
Prunus dulcis [6]
  inhibition: 68%
Prunus dulcis [12]
  inhibition: 25%
[13]
  IC50: 52.2 µM
Saccharomyces cerevisiae [7]
  inhibition: 33%
Saccharomyces cerevisiae [8]
  inhibition: 60%
Prunus dulcis [9]
  inhibition: 40%
Saccharomyces cerevisiae [10]
  inhibition: 30%
[14]
  IC50: 55.9 µM

## OC[C@H]1C[C@H](O)[C@@H](Cl)[C@H](O)[C@H]1CO (racemic)
Prunus dulcis [1]
  inhibition: 21.1%
Saccharomyces cerevisiae [2]
  inhibition: 3.98%
Saccharomyces cerevisiae [3]
  inhibition: 56.4%
Prunus dulcis [4]
  inhibition: 24.6%
Saccharomyces cerevisiae [5]
  inhibition: 23%
Prunus dulcis [11]
  inhibition: 2.49%
Prunus dulcis [6]
  inhibition: 26.4%
Prunus dulcis [12]
  inhibition: 11.7%
[13]
  IC50: 155 µM
Saccharomyces cerevisiae [7]
  inhibition: 20.4%
Saccharomyces cerevisiae [8]
  inhibition: 34.8%
Prunus dulcis [9]
  inhibition: 18.4%
Saccharomyces cerevisiae [10]
  inhibition: 7.9%

## OC[C@H]1C[C@@H](O)[C@H](O)[C@@H](O)[C@H]1CO (racemic)
Prunus dulcis [1]
  inhibition: 30.8%
Saccharomyces cerevisiae [2]
  inhibition: 10.4%
Saccharomyces cerevisiae [3]
  inhibition: 44.6%
Prunus dulcis [4]
  inhibition: 33.8%
Saccharomyces cerevisiae [5]
  inhibition: 25.3%
Prunus dulcis [11]
  inhibition: 3.74%
Prunus dulcis [6]
  inhibition: 36.8%
Prunus dulcis [12]
  inhibition: 5.22%
Saccharomyces cerevisiae [7]
  inhibition: 22.5%
Saccharomyces cerevisiae [8]
  inhibition: 33.6%
Prunus dulcis [9]
  inhibition: 25.1%
Saccharomyces cerevisiae [10]
  inhibition: 12.1%

## OC[C@H]1C[C@H](Cl)[C@@H](O)[C@H](O)[C@H]1CO (racemic)
Prunus dulcis [1]
  inhibition: 20.6%
Saccharomyces cerevisiae [2]
  inhibition: 12.2%
Saccharomyces cerevisiae [3]
  inhibition: 55%
Prunus dulcis [4]
  inhibition: 24.1%
Saccharomyces cerevisiae [5]
  inhibition: 26.1%
Prunus dulcis [11]
  inhibition: 1.99%
Prunus dulcis [6]
  inhibition: 32.3%
Prunus dulcis [12]
  inhibition: 5.2%
[13]
  IC50: 176 µM
Saccharomyces cerevisiae [7]
  inhibition: 15%
Saccharomyces cerevisiae [8]
  inhibition: 38%
Prunus dulcis [9]
  inhibition: 19.1%
Saccharomyces cerevisiae [10]
  inhibition: 13.3%

## OC[C@H]1C[C@H](O)[C@@H](O)[C@H](O)[C@H]1CO (racemic)
Prunus dulcis [1]
  inhibition: 15.4%
Saccharomyces cerevisiae [2]
  inhibition: 2.13%
Saccharomyces cerevisiae [3]
  inhibition: 16%
Prunus dulcis [4]
  inhibition: 17.7%
Saccharomyces cerevisiae [5]
  inhibition: 8.5%
Prunus dulcis [11]
  inhibition: 2.24%
Prunus dulcis [6]
  inhibition: 17.4%
Prunus dulcis [12]
  inhibition: 5.97%
Saccharomyces cerevisiae [7]
  inhibition: 7.83%
Saccharomyces cerevisiae [8]
  inhibition: 10.8%
Prunus dulcis [9]
  inhibition: 10.9%
Saccharomyces cerevisiae [10]
  inhibition: 3.6%
